Measurements from paper PMC4457826 (PLoS Pathogens, 2015).
No end group written: not given here.

Tests used:
Ubl123 mutant E759A = target: T1, Ubl123 mutant E759A (Homo sapiens, UniProt Q93009, E759A); test: GST pull-down, Ubl123 E759A; format: binding; details: Fig 3F
T1 construct: Ubl123 (535–889); (vector pET15b); made in house; host or cells: E. coli BL21(DE3)mgk
Method: (§1) Fragments representing USP7-CTD Ubl domains were prepared using ligation independent cloning with In-Fusion (Clontech) in p15TV-L. The boundaries of the Ubl domain constructs are Ubl12 (535–776), Ubl123 (535–889), Ubl345 (776–1102), Ubl45 (886–1102) and USP7-CTD (535–1102). Plasmids expressing USP7-NTD, USP7, and myc-USP7 WT (pCANmycUSP7) were described previously. USP7 mutants E759A, D762A, D764A and D762A/D764A in Ubl123 were synthesized (Genscript) and inserted into the pET15b plasmid. USP7 mutants E759A, D762A, D764A, D762A/D764A and D762R/D764R in USP7-CTD were prepared by ACGT Corporation. The D762R/D764R mutant was then sub-cloned into wild-type pCANmycUSP7 for co-IP assays. The mammalian ICP0 expression construct pCI-110 ICP0 was obtained from Roger Everett.
(§2) The ICP0, GMPS and UHRF1 WT and mutant peptides were cloned into pGEX-2TK and expressed in E. coli BL21(DE3). GST-ICP0 594–775 was obtained from Roger Everett. The GST-ICP0 or GST-GMPS or GST-UHRF1 or GST-ICP0 594–775 cell pellets from 500 ml of LB broth were re-suspended with PBS and lysed using sonication. The cleared lysates were applied to 500 μl of equilibrated glutathione-sepharose beads and incubated with rocking for 60 min at 4°C. Unbound proteins were removed by washing with PBS. Bound proteins were eluted with 50 mM Tris pH 8.0 and 100 mM NaCL containing 30 mM reduced glutathione. […]

[1] = target: T2, Ubl123 mutant D762A/D764A (Homo sapiens, UniProt Q93009, D762A/D764A); test: GST pull-down, Ubl123 D762A/D764A; format: binding; details: Fig 3F
T2 construct: Ubl123 (535–889); (vector pET15b); made in house; host or cells: E. coli BL21(DE3)mgk
Method: as §1, §2

USP7-CTD mutant D764A = test: GST pull-down, USP7-CTD D764A; format: binding, human
Method: as §1, §2

USP7 Ubl12 = target: T3, USP7 Ubl12 (Homo sapiens, UniProt Q93009); test: GST pull-down, Ubl12; format: binding; details: USP7 domain mapping, Fig 1B/1E, listed as GST-ICP0 615–629
T3 construct: Ubl12 (535–776); His tag (inferred from nickel-NTA purification; vector p15TV-L); made in house; host or cells: E. coli BL21(DE3)mgk
Method: as §1, §2

USP7-CTD mutant D762A = test: GST pull-down, USP7-CTD D762A; format: binding, human
Method: as §1
(§3) The ICP0, GMPS and UHRF1 WT and mutant peptides were cloned into pGEX-2TK and expressed in E. coli BL21(DE3). GST-ICP0 594–775 was obtained from Roger Everett. The GST-ICP0 or GST-GMPS or GST-UHRF1 or GST-ICP0 594–775 cell pellets from 500 ml of LB broth were re-suspended with PBS and lysed using sonication. The cleared lysates were applied to 500 μl of equilibrated glutathione-sepharose beads and incubated with rocking for 60 min at 4°C. Unbound proteins were removed by washing with PBS. Bound proteins were eluted with 50 mM Tris pH 8.0 and 100 mM NaCL containing 30 mM reduced glutathione. Equal amounts (250 μg) of the various USP7 proteins were incubated with 250 μg of the GST-ICP0 or GST-GMPS or GST-UHRF1 or GST-ICP0 594–775 peptides in 50 mM Tris pH 8.0, 100 mM NaCl, 5 mM DTT, 5% glycerol, 0.1 mM Benzamidine and 0.05 mM PMSF, applied to equilibrated glutathione-sepharose beads and incubated overnight with rocking at 4°C. After extensive washing, bound proteins were eluted with 50 mM Tris pH 8.0 and 100 mM NaCl containing 30 mM reduced glutathione.

Ubl123 mutant D762A = target: T4, Ubl123 mutant D762A (Homo sapiens, UniProt Q93009, D762A); test: GST pull-down, Ubl123 D762A; format: binding; details: Fig 3F
T4 construct: Ubl123 (535–889); (vector pET15b); made in house; host or cells: E. coli BL21(DE3)mgk
Method: as §1, §2

USP7-NTD = test: GST pull-down, USP7-NTD; format: binding, human; details: USP7 domain mapping, Fig 1B/1E, listed as GST-ICP0 615–629
Description: (§4) Next we determined which region of USP7-CTD interacted with the ICP0 615–629 peptide. FL-USP7, USP7-CTD as well as Ubl12, Ubl123, Ubl345 and Ubl45 (Fig 1B) were used as prey in GST pull-down assays using GST-ICP0 615–629. FL-USP7 and USP7-CTD were used as positive controls while GST alone and USP7-NTD were used as negative controls.
as §3

USP7 Ubl345 = test: GST pull-down, Ubl345; format: binding, human; details: USP7 domain mapping, Fig 1B/1E, listed as GST-ICP0 615–629
Method: as §1, §2

FL-USP7 = test: GST pull-down, USP7-FL; format: binding, human
Method: The USP7 binding region is found within ICP0 residues 594–633 and mutagenesis studies have shown that K620 is essential for the interaction. In order to facilitate crystallization and structure determination, we set out to identify a shorter peptide that is capable of binding to USP7. To this end, a series of overlapping GST-ICP0 fusions (591–605, 595–609, 599–613, 603–617, 607–621, 611–625, 615–629, 619–633) were prepared (see Fig 1A for sequence details) and used in GST pull-down assays. […] Overall, our GST pull-down assays identified ICP0 residues between 619 and 629 as important mediators of USP7 binding in agreement with a previous study.
as §4, §3

USP7 Ubl123 = target: T5, USP7 Ubl123 (Homo sapiens, UniProt Q93009); test: GST pull-down, Ubl123; format: binding; details: for Binding of mutant GST-ICP0 peptides to Ubl123: mutations within ICP0 615–629, Fig 3D
T5 construct: Ubl123 (535–889); His tag (inferred from nickel-NTA purification; vector p15TV-L); made in house; host or cells: E. coli BL21(DE3)mgk
Method: as §1, §3

USP7 Ubl45 = test: GST pull-down, Ubl45; format: binding, human; details: USP7 domain mapping, Fig 1B/1E, listed as GST-ICP0 615–629
Method: as §1, §2

USP7-CTD mutant E759A = test: GST pull-down, USP7-CTD E759A; format: binding, human
Method: as §1, §2

USP7-CTD = target: T6, USP7-CTD (Homo sapiens, UniProt Q93009); test: GST pull-down, USP7-CTD; format: binding
T6 construct: USP7-CTD (535–1102); His tag (inferred from nickel-NTA purification; vector p15TV-L); made in house; host or cells: E. coli BL21(DE3)mgk
Method: as §1, §3

[2] = system: USP7-CTD mutant D762A/D764A; test: GST pull-down, USP7-CTD D762A/D764A; format: binding, human
Method: as §1, §3

Ubl123 mutant D764A = target: T7, Ubl123 mutant D764A (Homo sapiens, UniProt Q93009, D764A); test: GST pull-down, Ubl123 D764A; format: binding; details: Fig 3F
T7 construct: Ubl123 (535–889); (vector pET15b); made in house; host or cells: E. coli BL21(DE3)mgk
Method: as §1, §2

[3] = GST pull-down, USP7 domain mapping, Fig 1B/1E, listed as GST-ICP0 615–629

T5 sequence (Q93009 535-889): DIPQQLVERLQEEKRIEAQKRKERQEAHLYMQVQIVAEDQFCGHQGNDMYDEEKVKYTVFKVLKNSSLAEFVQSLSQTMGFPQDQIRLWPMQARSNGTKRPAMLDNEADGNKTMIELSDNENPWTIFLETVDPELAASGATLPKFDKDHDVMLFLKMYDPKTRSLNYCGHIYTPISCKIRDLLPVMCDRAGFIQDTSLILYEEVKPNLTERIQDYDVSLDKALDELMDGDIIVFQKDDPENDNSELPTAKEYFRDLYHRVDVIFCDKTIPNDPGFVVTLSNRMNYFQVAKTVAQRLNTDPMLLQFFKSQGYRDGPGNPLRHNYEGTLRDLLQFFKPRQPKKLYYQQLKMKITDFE
T6 sequence (Q93009 535-1102): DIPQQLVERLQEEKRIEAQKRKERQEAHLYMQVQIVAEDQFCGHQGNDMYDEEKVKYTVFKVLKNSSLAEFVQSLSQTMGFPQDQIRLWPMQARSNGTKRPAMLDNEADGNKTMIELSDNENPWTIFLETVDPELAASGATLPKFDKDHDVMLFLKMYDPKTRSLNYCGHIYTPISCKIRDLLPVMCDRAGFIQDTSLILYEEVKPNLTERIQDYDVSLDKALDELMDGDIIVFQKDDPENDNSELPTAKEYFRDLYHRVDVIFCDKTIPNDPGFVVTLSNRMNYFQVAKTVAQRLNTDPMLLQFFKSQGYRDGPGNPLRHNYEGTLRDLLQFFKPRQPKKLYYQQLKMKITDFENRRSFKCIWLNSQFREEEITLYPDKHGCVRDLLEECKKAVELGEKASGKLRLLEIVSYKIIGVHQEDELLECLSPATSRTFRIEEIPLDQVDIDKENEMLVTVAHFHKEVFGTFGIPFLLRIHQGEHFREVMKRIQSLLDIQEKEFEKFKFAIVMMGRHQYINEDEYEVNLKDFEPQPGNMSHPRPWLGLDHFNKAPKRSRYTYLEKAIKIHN
T1 sequence (Q93009 535-889 E759A): as the sequence (Q93009 535-889) above, with E225A counted along it
T7 sequence (Q93009 535-889 D764A): as the sequence (Q93009 535-889) above, with D230A counted along it
T2 sequence (Q93009 535-889 D762A/D764A): as the sequence (Q93009 535-889) above, with D228A, D230A counted along it
T4 sequence (Q93009 535-889 D762A): as the sequence (Q93009 535-889) above, with D228A counted along it
T3 sequence (Q93009 535-776): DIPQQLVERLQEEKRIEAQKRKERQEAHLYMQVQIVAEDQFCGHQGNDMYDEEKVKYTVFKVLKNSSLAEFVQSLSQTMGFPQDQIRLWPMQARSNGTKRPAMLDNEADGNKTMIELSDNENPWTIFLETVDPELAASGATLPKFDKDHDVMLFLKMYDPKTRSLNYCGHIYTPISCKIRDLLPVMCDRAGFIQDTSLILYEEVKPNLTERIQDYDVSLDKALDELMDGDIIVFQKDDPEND

## PRGPRKCARKTRHAE [ICP0 615–629, GST-ICP0 fusion of ICP0 residues 615–629]
Ubl123 mutant E759A
  Binding to Ubl123 mutant E759A: Binding was abolished
[1]
  Binding to Ubl123 mutant D762A/D764A: Binding was abolished
USP7-CTD mutant D764A
  Binding to USP7-CTD mutant D764A: Binding was abolished
USP7 Ubl12
  Interaction with ICP0 615-629: Ubl12: interacted
USP7-CTD mutant D762A
  Binding to USP7-CTD mutant D762A: Binding was abolished
Ubl123 mutant D762A
  Binding to Ubl123 mutant D762A: Binding was abolished
USP7-NTD
  Interaction with ICP0 615-629: USP7-NTD: not USP7-NTD
USP7 Ubl345
  Interaction with ICP0 615-629: Ubl345: no interaction
FL-USP7; GST fusions 250 μg + USP7 250 μg, 50 mM Tris pH 8.0, 100 mM NaCl, 5 mM DTT, 5% glycerol, overnight 4°C, Coomassie stained gel, Fig 1A/1C, symbols not defined
  Interaction with USP7-FL (overlapping GST-ICP0 peptides): strongest interaction
FL-USP7; [3]
  Interaction with ICP0 615-629: USP7-FL: FL-USP7 as well as USP7-CTD but not USP7-NTD or GST alone interacted
USP7 Ubl123; USP7 domain mapping, Fig 1B/1E, listed as GST-ICP0 615–629
  Interaction with ICP0 615-629: Ubl123: interacted
USP7 Ubl45
  Interaction with ICP0 615-629: Ubl45: no interaction
USP7-CTD mutant E759A
  Binding to USP7-CTD mutant E759A: Binding was abolished
USP7-CTD; GST fusions 250 μg + USP7-CTD 250 μg, 50 mM Tris pH 8.0, 100 mM NaCl, 5 mM DTT, 5% glycerol, overnight 4°C, Coomassie stained gel, Fig 1A/1D, symbols not defined
  Interaction with USP7-CTD (overlapping GST-ICP0 peptides): strongest interaction
USP7-CTD; [3]
  Interaction with ICP0 615-629: USP7-CTD: FL-USP7 as well as USP7-CTD but not USP7-NTD or GST alone interacted
[2]
  Binding to USP7-CTD mutant D762A/D764A: Binding was abolished
Ubl123 mutant D764A
  Binding to Ubl123 mutant D764A: Binding was abolished

## R619A/K620A (PRGPAACARKTRHAE; also: GST fusion partner not in chain)
USP7 Ubl123
  Binding of mutant GST-ICP0 peptides to Ubl123: lacked detectable binding

## R623A/K624A (PRGPRKCAAATRHAE; also: GST fusion partner not in chain)
USP7 Ubl123
  Binding of mutant GST-ICP0 peptides to Ubl123: lacked detectable binding
